Laboratory results published in BindingDB's records for doi:10.1016/j.bmc.2010.06.025 (Wayne State University, 2010).

Key:
D(3) dopamine receptor = D(3) dopamine receptor (Rattus norvegicus, UniProt P19020); assay: Displacement of [3H]spiperone from rat D3 receptor expressed in HEK293 cells
D(2) dopamine receptor = D(2) dopamine receptor (Rattus norvegicus, UniProt P61169); assay: Displacement of [3H]spiperone from rat D2 receptor expressed in HEK293 cells
D(2) dopamine receptor, sequence (P61169 whole entry): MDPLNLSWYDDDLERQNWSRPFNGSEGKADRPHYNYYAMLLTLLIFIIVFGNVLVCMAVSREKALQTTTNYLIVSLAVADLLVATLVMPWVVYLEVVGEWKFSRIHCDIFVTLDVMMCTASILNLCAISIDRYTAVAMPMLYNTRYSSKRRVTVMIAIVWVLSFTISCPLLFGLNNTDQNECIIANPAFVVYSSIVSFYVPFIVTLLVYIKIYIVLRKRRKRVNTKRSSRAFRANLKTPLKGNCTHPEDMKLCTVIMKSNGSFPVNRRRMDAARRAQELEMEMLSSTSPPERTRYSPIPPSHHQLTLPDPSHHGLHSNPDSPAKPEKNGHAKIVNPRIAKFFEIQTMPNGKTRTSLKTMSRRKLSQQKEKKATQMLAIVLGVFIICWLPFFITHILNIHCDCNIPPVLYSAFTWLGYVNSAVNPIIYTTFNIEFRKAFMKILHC

D(3) dopamine receptor, sequence (P19020 whole entry): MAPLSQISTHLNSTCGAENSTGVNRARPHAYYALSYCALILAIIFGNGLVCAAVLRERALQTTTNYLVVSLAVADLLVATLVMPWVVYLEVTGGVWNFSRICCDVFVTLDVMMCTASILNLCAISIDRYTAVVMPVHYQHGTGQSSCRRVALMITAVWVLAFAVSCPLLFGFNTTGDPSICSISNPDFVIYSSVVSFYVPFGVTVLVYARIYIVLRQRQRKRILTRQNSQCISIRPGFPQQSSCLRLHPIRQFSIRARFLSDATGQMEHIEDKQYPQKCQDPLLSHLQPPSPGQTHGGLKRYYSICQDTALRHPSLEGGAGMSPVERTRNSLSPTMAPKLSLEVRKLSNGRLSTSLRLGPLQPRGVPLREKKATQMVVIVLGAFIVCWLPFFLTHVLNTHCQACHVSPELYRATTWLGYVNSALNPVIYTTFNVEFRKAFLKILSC

Ki (D(3) dopamine receptor): 16.2 nM
Ki (D(2) dopamine receptor): 399 nM
SMILES: CCCN(CCN1CCN(c2ccc(-c3ccncc3)cc2)CC1)C1CCc2ccc(O)cc2C1 (stereo not drawn) [(+)-7-(propyl(2-(4-(4-(pyridin-4-yl)-phenyl)piperazin-1-yl)ethyl)amino)-5,6,7,8-tetrahydronaphthalen-2-ol]
